The values below come from ChEMBL document CHEMBL1667842, “Benzyl benzoates: New phlorizin analogs as mushroom tyrosinase inhibitors” (Bioorg Med Chem, 2011).

In experiment [1] the target is T1, Tyrosinase (Agaricus bisporus, UniProt O42713).
T1 sequence (O42713 whole entry): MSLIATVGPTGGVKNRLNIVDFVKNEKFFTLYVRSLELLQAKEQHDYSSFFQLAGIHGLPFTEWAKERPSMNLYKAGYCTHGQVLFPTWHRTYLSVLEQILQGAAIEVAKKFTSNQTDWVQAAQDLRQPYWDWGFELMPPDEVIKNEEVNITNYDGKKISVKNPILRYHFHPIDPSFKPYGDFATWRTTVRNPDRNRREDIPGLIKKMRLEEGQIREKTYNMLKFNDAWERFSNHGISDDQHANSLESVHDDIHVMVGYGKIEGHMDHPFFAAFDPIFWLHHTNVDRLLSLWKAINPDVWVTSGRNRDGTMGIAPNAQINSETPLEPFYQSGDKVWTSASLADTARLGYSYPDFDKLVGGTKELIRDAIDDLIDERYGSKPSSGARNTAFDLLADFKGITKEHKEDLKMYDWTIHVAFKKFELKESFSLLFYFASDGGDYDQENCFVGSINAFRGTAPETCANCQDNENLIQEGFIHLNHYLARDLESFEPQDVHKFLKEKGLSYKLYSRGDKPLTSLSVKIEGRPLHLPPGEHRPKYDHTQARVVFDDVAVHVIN
Kind of experiment: (§1) Competitive inhibition of mushroom tyrosinase by Lineweaver-Burk plot analysis.

Experiment [2] deals with T1, Tyrosinase.
Description: Inhibition of mushroom tyrosinase preincubated for 20 mins
Experiment [3] addresses T2, Tyrosinase (Agaricus bisporus) (UniProt O42713).
T2 sequence (whole entry): T1 sequence (O42713 whole entry)
The experiment is described as §1.

Calls of active or inactive are those of the source. The rule behind the calls is not given here.

In the case of `O=C(OCc1ccc(O)cc1)c1ccc(O)cc1O`, the affinity on Tyrosinase [1] corresponds to a Ki of 1.11 µM. Besides, the IC50 – broadly, the midpoint of a concentration-inhibition curve – at Tyrosinase [2] came out at 4.69 µM.

For the compound `O=C(OCc1cccc(O)c1)c1cc(O)c(O)c(O)c1`, on Tyrosinase [2], the IC50 was 11.5 µM.

In the case of `O=C(OCc1cccc(O)c1)c1cc(O)cc(O)c1`, the result in experiment [3] was Active. Moreover, the midpoint of inhibition on Tyrosinase [2], the IC50, lay at 6.11 µM.

`O=C(OCc1ccc(O)cc1)c1cc(O)c(O)c(O)c1` [4-HYDROXYBENZYL GALLATE] had an IC50 against Tyrosinase [2] of 25.7 µM.

As for `O=C(OCc1ccc(O)cc1)c1cc(O)ccc1O` [4-HYDROXYBENZYL 2,5-DIHYDROXYBENZOATE], half-maximal inhibition at Tyrosinase [2] (IC50) required 12.3 µM.

Consider `O=C(OCc1ccccc1O)c1ccc(O)cc1O`, for which, at Tyrosinase [2], the IC50 was found to be 66.2 µM.

With `O=C(OCc1ccc(O)cc1)c1cc(O)cc(O)c1` [4-HYDROXYBENZYL 3,5-DIHYDROXYBENZOATE], the outcome in experiment [3] was Active. For the same compound, half-maximal inhibition on Tyrosinase [2] (IC50) was put at 5.84 µM.

As to `O=C(OCc1ccccc1O)c1cc(O)ccc1O`, the IC50 against Tyrosinase [2] is over 100 µM.

In turn, `O=C(OCc1ccccc1O)c1c(O)cc(O)cc1O` registered an IC50 against Tyrosinase [2] of 19.9 µM.

Turning to `O=C(OCc1cccc(O)c1)c1ccc(O)cc1O`, the outcome in experiment [3] was Active. The compound further displayed a concentration for half-maximal inhibition (IC50) against Tyrosinase [2] of 6.23 µM.

Take `O=C(OCc1cccc(O)c1)c1cc(O)ccc1O` [3-HYDROXYBENZYL 2,5-DIHYDROXYBENZOATE]: the IC50 at Tyrosinase [2] amounted to 24.4 µM.

At Tyrosinase [2], `O=C(OCc1ccccc1O)c1cc(O)cc(O)c1` returned an IC50 of 19.9 µM.

At Tyrosinase [2], `O=C(OCc1ccccc1O)c1cc(O)c(O)c(O)c1` displayed an IC50 of over 100 µM.

For the compound `O=C(OCc1ccc(O)cc1)c1c(O)cc(O)cc1O` [4-HYDROXYBENZYL 2,4,6-DIHYDROXYBENZOATE], the result in experiment [3] was Active. Also, the midpoint of inhibition against Tyrosinase [2], the IC50, lay at 8 µM.
